Laboratory results: patent US11464770B2, “Anticancer pharmaceutical composition” (NATIONAL CANCER CENTER, priority 2016, dated 2022)
Read-outs that look alike come from different tables or passages of the source.

Columns and labels:
[1] = test system: bladder cancer cell lines; test: Cell based assay, cell viability (CellTiter-Glo), bladder cancer cell lines; details: 72 hours treatment, 0 to 2 μM, CellTiter-Glo
Experimental: (§1) Commercially available bladder cancer, prostate cancer, lung cancer, breast cancer, blood cancer, pancreatic cancer, colorectal cancer, brain cancer, neuroblastoma, melanoma, liver cancer, cervical carcinoma, ovarian cancer, renal cancer, and papilloma cell lines were each treated with trypsin-EDTA and cultured, followed by being seeded in each well of a 96 well plate. After 24 hours of treatment at constant temperature, the respective cells were treated with the candidate compound so that a final concentration became 0 to 2 μM. The treated cells were additionally cultured for 72 hours, and cell viability was measured by using an ATP detection method (CellTiter-Glo® Luminescent Cell Viability Assay, Promega).

[2] = test system: blood cancer cell lines (e.g. HL-60, Jurkat, Raji, Ramos, Daudi, MOLT-4); test: Cell based assay, cell viability (CellTiter-Glo), blood cancer cell lines; details: Homo sapiens
Experimental: as §1

[3] = test system: cervical carcinoma cell lines; test: Cell based assay, cell viability (CellTiter-Glo), cervical carcinoma cell lines; details: Homo sapiens; HeLa cells
Experimental: as §1, with “After 24 hours of treatment at constant temperature, the respective cells were treated with the candidate compound so that a final concentration became 0 to 2 μM.” left out

[4] = 253J cells, read-out: IC50, bladder cancer cell line 253J
[5] = 5637 cells, read-out: IC50, bladder cancer cell line 5637
[6] = Homo sapiens, T-24, T24 cells, read-out: IC50, bladder cancer cell line T24
[7] = Homo sapiens, UMUC3, UM-UC-3 cells, read-out: IC50, bladder cancer cell line UM-UC-3
[8] = Homo sapiens, J82 cells, read-out: IC50, bladder cancer cell line J82
[9] = Homo sapiens, KU-19-19 cells, read-out: IC50, bladder cancer cell line KU-19-19
[10] = MBT-2 cells, read-out: IC50, bladder cancer cell line MBT-2
[11] = MV4-11, blood cancer cell line MV-4-11, 72 hours, read-out: IC50, MV-4-11
[12] = blood cancer cell line Daudi, 72 hours, read-out: IC50, Daudi
[13] = blood cancer cell line HL-60, 72 hours, read-out: IC50, HL-60
[14] = blood cancer cell line Jurkat, 72 hours, read-out: IC50, Jurkat
[15] = blood cancer cell line MOLT-4, 72 hours, read-out: IC50, MOLT-4
[16] = blood cancer cell line Raji, 72 hours, read-out: IC50, Raji
[17] = blood cancer cell line Ramos (RA 1), 72 hours, read-out: IC50, Ramos (RA 1)
[18] = blood cancer cell line U-937, 72 hours, read-out: IC50, U-937

Row | Compound | IC50 [1, 4] | IC50 [1, 5] | IC50 [1, 6] | IC50 [1, 7] | IC50 [1, 8] | IC50 [1, 9] | IC50 [1, 10] | IC50 [2, 11] | IC50 [2, 12] | IC50 [2, 13] | IC50 [2, 14] | IC50 [2, 15] | IC50 [2, 16] | IC50 [2, 17] | IC50 [2, 18] | IC50 [3]
1 | CSc1c(C(C)=O)c(=O)c2c(Cl)ccc(Br)c2n1C [Compound 5, 3-acetyl-8-bromo-5-chloro-1-methyl-2-(methylthio)quinolin-4(1H)-one] | > 2000 nM | > 2000 nM | > 2000 nM | > 2000 nM | > 2000 nM | > 2000 nM | > 2000 nM | > 2000 nM | > 2000 nM | > 2000 nM | > 2000 nM | > 2000 nM | > 2000 nM | > 2000 nM | > 2000 nM | > 10000 nM
2 | CC(=O)c1c([S+]([O-])Cc2cccc(S(F)(F)(F)(F)F)c2)[nH]c2c(Br)ccc(Cl)c2c1=O (centres unmarked) [Compound 77, 3-acetyl-8-bromo-5-chloro-2-((3-(pentafluoro--sulfanyl)benzyl)sulfinyl)quinolin-4(1H)-one] | 900 nM | 1680 nM | 1510 nM |  | 1620 nM |  |  | > 2000 nM | 1420 nM | > 2000 nM | 1120 nM | 1350 nM | 1330 nM | > 2000 nM | > 2000 nM | > 10000 nM
3 | CC(=O)c1c([S+](C)[O-])n(C(=O)c2ccc(Br)cc2)c2c(Br)ccc(Cl)c2c1=O (centres unmarked) [Compound 9, 3-acetyl-8-bromo-1-(4-bromobenzoyl)-5-chloro-2-(methylsulfinyl)quinolin-4(1H)-one] | 1100 nM | 1630 nM | 1160 nM | 1180 nM | > 2000 nM | 1970 nM | 1200 nM | 1090 nM | 1990 nM | 1200 nM | 1050 nM | 1250 nM | 1140 nM | 1550 nM | 1060 nM | > 10000 nM
4 | CC(=O)c1c([S+](C)[O-])n(C(C)=O)c2c(Br)ccc(Cl)c2c1=O (centres unmarked) [Compound 19, 1,1′-(8-bromo-5-chloro-2-(methylsulfinyl)-4-oxoquinoline-1,3(4H)-diyl)bis(ethan-1-one)] | > 2000 nM | > 2000 nM | > 2000 nM | > 2000 nM | > 2000 nM | > 2000 nM | > 2000 nM | > 2000 nM | > 2000 nM | > 2000 nM | > 2000 nM | > 2000 nM | > 2000 nM | > 2000 nM | > 2000 nM | > 10000 nM
5 | CC(=O)c1c(S(C)(=O)=O)n(S(=O)(=O)c2ccc(C(C)(C)C)cc2)c2c(Br)ccc(Cl)c2c1=O [Compound 41, 3-acetyl-8-bromo-1-((4-(tert-butyl)phenyl)sulfonyl)-5-chloro-2-(methylsulfonyl)quinolin-4(1H)-one] | > 2000 nM | > 2000 nM | > 2000 nM | > 2000 nM | > 2000 nM | > 2000 nM | > 2000 nM | > 2000 nM | > 2000 nM | > 2000 nM | > 2000 nM | > 2000 nM | > 2000 nM | > 2000 nM | > 2000 nM | > 10000 nM
6 | CC(=O)c1c([S+]([O-])Cc2ccccc2C#N)[nH]c2c(Br)ccc(Cl)c2c1=O (centres unmarked) [Compound 58, 2-(((3-acetyl-8-bromo-5-chloro-4-oxo-1,4-dihydroquinolin-2-yl)sulfinyl)methyl)benzonitrile] | 920 nM | > 2000 nM | 820 nM |  | > 2000 nM |  |  | 970 nM | 1980 nM | 870 nM | 990 nM | 1240 nM | 940 nM | 1250 nM | 730 nM | > 10000 nM
7 | COc1cccc2[nH]c([S+]([O-])Cc3cc(C)on3)c(C(C)=O)c(=O)c12 (centres unmarked) [Compound 94, 3-acetyl-5-methoxy-2-(((5-methylisoxazol-3-yl)methyl)sulfinyl)quinolin-4(1H)-one] | > 2000 nM | > 2000 nM | > 2000 nM |  | > 2000 nM |  |  | 1380 nM | > 2000 nM | > 2000 nM | > 2000 nM | > 2000 nM | > 2000 nM | > 2000 nM | > 2000 nM | > 10000 nM
8 | COc1ccccc1Sc1[nH]c2c(Br)ccc(Cl)c2c(=O)c1C(C)=O [Compound 14, 3-acetyl-8-bromo-5-chloro-2-((2-methoxyphenyl)thio)quinolin-4(1H)-one] | > 2000 nM | > 2000 nM | > 2000 nM | > 2000 nM | > 2000 nM | > 2000 nM | > 2000 nM | > 2000 nM | > 2000 nM | > 2000 nM | > 2000 nM | > 2000 nM | > 2000 nM | > 2000 nM | > 2000 nM | > 10000 nM
9 | CC(=O)c1c(SCc2cccc(I)c2)[nH]c2c(Br)ccc(Cl)c2c1=O [Compound 47, 3-acetyl-8-bromo-5-chloro-2-((3-iodobenzyl)thio)quinolin-4(1H)-one] | > 2000 nM | > 2000 nM | > 2000 nM | > 2000 nM | > 2000 nM | > 2000 nM | > 2000 nM | > 2000 nM | > 2000 nM | > 2000 nM | > 2000 nM | > 2000 nM | > 2000 nM | > 2000 nM | > 2000 nM | > 10000 nM
10 | CC(=O)c1c([S+]([O-])Cc2ccc(SC(F)(F)F)cc2)[nH]c2c(Cl)ccc(Cl)c2c1=O (centres unmarked) [Compound 79, 3-acetyl-5,8-dichloro-2-((4-((trifluoromethyl)thio)benzyl)sulfinyl)quinolin-4(1H)-one] | > 2000 nM | > 2000 nM | > 2000 nM |  | > 2000 nM |  |  | > 2000 nM | > 2000 nM | > 2000 nM | > 2000 nM | > 2000 nM | > 2000 nM | > 2000 nM | > 2000 nM | > 10000 nM
11 | CC(=O)c1c([S+](C)[O-])[nH]c2c(Br)ccc(Cl)c2c1=O (centres unmarked) [Compound 1, 3-acetyl-8-bromo-5-chloro-2-(methylsulfinyl)quinolin-4(1H)-one] | 1350 nM | 1670 nM | 1340 nM | 1510 nM | > 2000 nM | 1940 nM | 1190 nM | 1390 nM | > 2000 nM | 1720 nM | > 2000 nM | 1850 nM | > 2000 nM | > 2000 nM | > 2000 nM | > 10000 nM
12 | CC(=O)c1c(S(C)(=O)=O)n(C(=O)c2ccc(Br)cc2)c2c(Br)ccc(Cl)c2c1=O [Compound 21, 3-acetyl-8-bromo-1-(4-bromobenzoyl)-5-chloro-2-(methylsulfonyl)quinolin-4(1H)-one] | > 2000 nM | > 2000 nM | > 2000 nM | > 2000 nM | > 2000 nM | > 2000 nM | > 2000 nM | > 2000 nM | > 2000 nM | > 2000 nM | > 2000 nM | > 2000 nM | > 2000 nM | > 2000 nM | > 2000 nM | > 10000 nM
13 | CC(=O)c1c([S+]([O-])Cc2ccc(N)nc2)[nH]c2c(Br)ccc(Cl)c2c1=O (centres unmarked) [Compound 100, 3-acetyl-2-(((6-aminopyridin-3-yl)methyl)sulfinyl)-8-bromo-5-chloroquinolin-4(1H)-one] | > 2000 nM | > 2000 nM | > 2000 nM |  | > 2000 nM |  |  | > 2000 nM | > 2000 nM | > 2000 nM | > 2000 nM | > 2000 nM | > 2000 nM | > 2000 nM | > 2000 nM | > 2000 nM
14 | CC(=O)c1c([S+]([O-])Cc2ccc(C(F)(F)F)o2)[nH]c2c(F)ccc(F)c2c1=O (centres unmarked) [Compound 81, 3-acetyl-5,8-difluoro-2-(((5-(trifluoromethyl)furan-2-yl)methyl)sulfinyl)quinolin-4(1H)-one] | > 2000 nM | > 2000 nM | > 2000 nM |  | > 2000 nM |  |  | > 2000 nM | > 2000 nM | > 2000 nM | > 2000 nM | > 2000 nM | > 2000 nM | > 2000 nM | > 2000 nM | > 10000 nM
15 | CC(=O)c1c([S+]([O-])Cc2ccccc2)nc2c(Br)ccc(Cl)c2c1O (centres unmarked) [Compound 53, 1-(2-(benzylsulfinyl)-8-bromo-5-chloro-4-hydroxyquinolin-3-yl)ethan-1-one] | > 2000 nM | > 2000 nM | > 2000 nM |  | > 2000 nM |  |  | > 2000 nM | > 2000 nM | > 2000 nM | > 2000 nM | > 2000 nM | > 2000 nM | > 2000 nM | > 2000 nM | > 10000 nM
16 | CC(=O)c1c([S+]([O-])c2ccc(Br)cc2)[nH]c2c(Br)ccc(Cl)c2c1=O (centres unmarked) [Compound 17, 3-acetyl-8-bromo-2-((4-bromophenyl)sulfinyl)-5-chloroquinolin-4(1H)-one] | > 2000 nM | > 2000 nM | > 2000 nM |  | > 2000 nM |  |  | > 2000 nM | > 2000 nM | > 2000 nM | > 2000 nM | > 2000 nM | > 2000 nM | > 2000 nM | > 2000 nM | > 10000 nM
17 | CC(=O)c1c([S+]([O-])Cc2ccc(S(F)(F)(F)(F)F)cc2F)[nH]c2c(Br)ccc(Cl)c2c1=O (centres unmarked) [Compound 69, 3-acetyl-8-bromo-5-chloro-2-((2-fluoro-4-(pentafluoro-16-sulfanyl)benzyl)sulfinyl)quinolin-4(1H)-one] | 1080 nM | 1620 nM | 1500 nM | 1200 nM | 1890 nM | 1500 nM | 1260 nM | 1470 nM | 1430 nM | 1880 nM | 1130 nM | 1300 nM | 1110 nM | 1870 nM | > 2000 nM | > 10000 nM
